Measurements taken from ChEMBL document CHEMBL5537150, “Synthesis of melampomagnolide B derivatives as potential anti-Triple Negative Breast Cancer agents” (Eur J Med Chem, 2024).
The source made the active and inactive calls. No cut-off for these calls is given here.

Assays:
SUM-159-PT = test: Antiproliferative activity against human SUM159 cells assessed as inhibition of cell growth incubated for 72 hrs by MTT assay; type: functional, cell-based
MDA-MB-468 [1] = test: Antiproliferative activity against human MDA-MB-468 cells assessed as inhibition of cell growth incubated for 72 hrs by MTT assay; type: functional, cell-based; details: MDA-MB-468, 72 h
MCF7 = test: Antiproliferative activity against human MCF7 cells assessed as inhibition of cell growth incubated for 72 hrs by MTT assay; type: functional, cell-based; details: MCF7, 72 h
4T1 [2] = test: Antiproliferative activity against mouse 4T1 cells assessed as inhibition of cell growth incubated for 72 hrs by MTT assay; type: functional, cell-based; details: 4T1, 72 h
NIH3T3 = test: Cytotoxicity against mouse 3T3 cells at 1 uM incubated for 72 hrs by MTT assay; type: toxicity, cell-based; details: nih3t3, 72 h
MDA-MB-468 [3] = test: Antimigratory activity in human MDA-MB-468 cells assessed as reduction in number of migrated cells incubated for 48 hrs by crystal violet staining based transwell assay; type: functional, cell-based
MDA-MB-231 [4] = test: Antimigratory activity in human MDA-MB-231 cells assessed as reduction in number of migrated cells incubated for 48 hrs by crystal violet staining based transwell assay; type: functional, cell-based
MDA-MB-468 [5] = test: Antimigratory activity in human MDA-MB-468 cells assessed as downregulation of Vimentin protein expression incubated for 48 hrs by Western blotting analysis; type: functional, cell-based
MDA-MB-468 [6] = test: Antimigratory activity in human MDA-MB-468 cells assessed as downregulation of N-cadherin protein expression incubated for 48 hrs by Western blotting analysis; type: functional, cell-based
MDA-MB-231 [7] = test: Antimigratory activity in human MDA-MB-231 cells assessed as downregulation of Vimentin protein expression incubated for 48 hrs by Western blotting analysis; type: functional, cell-based
MDA-MB-468 [8] = test: Induction of apoptosis in human MDA-MB-468 cells at 0.5 uM incubated for 48 hrs by annexin-V-APC/PI staining based flow cytometric analysis (reference value: 5.38 +/- 1.63 %); type: functional
MDA-MB-468 [9] = test: Induction of apoptosis in human MDA-MB-468 cells at 1 uM incubated for 48 hrs by annexin-V-APC/PI staining based flow cytometric analysis (reference value: 5.38 +/- 1.63 %); type: functional
MDA-MB-468 [10] = test: Induction of apoptosis in human MDA-MB-468 cells at 2 uM incubated for 48 hrs by annexin-V-APC/PI staining based flow cytometric analysis (reference value: 5.38 +/- 1.63 %); type: functional
MDA-MB-468 [11] = test: Induction of apoptosis in human MDA-MB-468 cells at 5 uM incubated for 48 hrs by annexin-V-APC/PI staining based flow cytometric analysis (reference value: 5.38 +/- 1.63 %); type: functional
MDA-MB-231 [12] = test: Induction of apoptosis in human MDA-MB-231 cells at 0.2 uM incubated for 48 hrs by annexin-V-APC/PI staining based flow cytometric analysis (reference value: 1.81 +/- 0.47 %); type: functional
MDA-MB-231 [13] = test: Induction of apoptosis in human MDA-MB-231 cells at 0.5 uM incubated for 48 hrs by annexin-V-APC/PI staining based flow cytometric analysis (reference value: 1.81 +/- 0.47 %); type: functional
MDA-MB-231 [14] = test: Induction of apoptosis in human MDA-MB-231 cells at 1 uM incubated for 48 hrs by annexin-V-APC/PI staining based flow cytometric analysis (reference value: 1.81 +/- 0.47 %); type: functional
MDA-MB-231 [15] = test: Induction of apoptosis in human MDA-MB-231 cells at 2 uM incubated for 48 hrs by annexin-V-APC/PI staining based flow cytometric analysis (reference value: 1.81 +/- 0.47 %); type: functional
MDA-MB-231 [16] = test: Induction of apoptosis in human MDA-MB-231 cells at 5 uM incubated for 48 hrs by annexin-V-APC/PI staining based flow cytometric analysis (reference value: 1.81 +/- 0.47 %); type: functional
MDA-MB-231 [17] = test: Induction of apoptosis in human MDA-MB-231 cells assessed as downregulation of BCL-2 protein expression incubated for 48 hrs by Western blotting analysis; type: functional, cell-based
MDA-MB-468 [18] = test: Induction of cell cycle arrest in human MDA-MB-468 cells assessed as increase in accumulation of cells at S phase at 0.2 to 2 uM incubated for 48 hrs by RNase/PI staining based flow cytometric analysis; type: functional; details: dose 0.2-2 µM
MDA-MB-468 [19] = test: Induction of cell cycle arrest in human MDA-MB-468 cells assessed as increase in accumulation of cells at G2/M phase at 0.2 to 2 uM incubated for 48 hrs by RNase/PI staining based flow cytometric analysis; type: functional; details: dose 0.2-2 µM
MDA-MB-231 [20] = test: Induction of cell cycle arrest in human MDA-MB-231 cells assessed as decrease in accumulation of cells at G1 phase at 0.2 to 2 uM incubated for 48 hrs by RNase/PI staining based flow cytometric analysis; type: functional; details: dose 0.2-2 µM
MDA-MB-231 [21] = test: Induction of cell cycle arrest in human MDA-MB-231 cells assessed as increase in accumulation of cells at S phase at 0.2 to 2 uM incubated for 48 hrs by RNase/PI staining based flow cytometric analysis; type: functional; details: dose 0.2-2 µM
MDA-MB-231 [22] = test: Induction of cell cycle arrest in human MDA-MB-231 cells assessed as increase in accumulation of cells at G2/M phase at 0.2 to 2 uM incubated for 48 hrs by RNase/PI staining based flow cytometric analysis; type: functional; details: dose 0.2-2 µM
MDA-MB-468 [23] = test: Induction of cell cycle arrest in human MDA-MB-468 cells assessed as downregulation of Cdc2 protein expression incubated for 48 hrs by Western blotting analysis; type: functional, cell-based
MDA-MB-231 [24] = test: Induction of cell cycle arrest in human MDA-MB-231 cells assessed as downregulation of Cyclin E1 protein expression incubated for 48 hrs by Western blotting analysis; type: functional, cell-based
MDA-MB-231 [25] = test: Inhibition of NF-kappaB signalling pathway in human MDA-MB-231 cells assessed as downregulation of IkappaBalpha phosphorylation at 0.5 to 2 uM incubated for 48 hrs by Western blotting analysis; type: cell-based; details: dose 0.5-2 µM
MDA-MB-231 [26] = test: Inhibition of NF-kappaB signalling pathway in human MDA-MB-231 cells assessed as effect on total p65 protein level at 0.2 to 2 uM incubated for 48 hrs by Western blotting analysis; type: cell-based; details: dose 0.2-2 µM
MDA-MB-231 [27] = test: Inhibition of NF-kappaB signalling pathway in human MDA-MB-231 cells assessed as upregulation of cytoplasmic p65 expression at 0.2 to 2 uM incubated for 48 hrs by Western blotting analysis; type: cell-based; details: dose 0.2-2 µM
MDA-MB-231 [28] = test: Inhibition of NF-kappaB signalling pathway in human MDA-MB-231 cells assessed as downregulation of nuclear p65 expression at 0.2 to 2 uM incubated for 48 hrs by Western blotting analysis; type: cell-based; details: dose 0.2-2 µM
MDA-MB-231 [29] = test: Inhibition of NF-kappaB signalling pathway in human MDA-MB-231 cells assessed as inhibition of p65 nuclear translocation at 0.2 to 2 uM incubated for 48 hrs by Western blotting analysis; type: cell-based; details: dose 0.2-2 µM
4T1 [30] = test: Antitumor activity against mouse 4T1 cells implanted in Balb/c mouse assessed as inhibition of tumor weight at 10 mg/kg,ip administrated every two days for 20 days; type: functional, organism-based; details: time 20.0 day
4T1 [31] = test: Antitumor activity against mouse 4T1 cells implanted in Balb/c mouse assessed as decrease in liver weight at 10 mg/kg,ip administrated every two days for 20 days; type: functional, organism-based; details: time 20.0 day
[32] = Toxicity in Balb/c mouse implanted with mouse 4T1 cells assessed as decrease in body weight at 10 mg/kg,ip administrated every two days for 20 days; type: organism-based; details: in vivo, 480 h, time 20 day

Which IC50 (SUM-159-PT) does the source give for `C=C1C(=O)O[C@H]2[C@H]1CC/C(COc1ccc(-c3cc(=S)ss3)cc1)=C\CC[C@@]1(C)O[C@@H]21` here?
Its IC50 is 1.51 µM.

What about the IC50 (MDA-MB-468 [1]) of the same compound?
Its IC50 is 1.52 µM.

And the IC50 (MCF7)?
Its IC50 is 3.84 µM.

What about the IC50 (4T1 [2]) of the same compound?
Its IC50 is 1.18 µM.

And the Activity (NIH3T3)?
The Activity was “Toxic”.

And the Activity (MDA-MB-468 [3])?
The Activity was “Dose-Dependent Effect”.

And the Activity (MDA-MB-231 [4])?
Its Activity is “Dose-Dependent Effect”.

And the Activity (MDA-MB-468 [5])?
The Activity was “Dose-Dependent Effect”.

What about the Activity (MDA-MB-468 [6]) of the same compound?
The Activity was “Dose-Dependent Effect”.

And the Activity (MDA-MB-231 [7])?
Its Activity is “Dose-Dependent Effect”.

What about the Activity (MDA-MB-468 [8]) of the same compound?
The Activity was 5.77%.

And the Activity (MDA-MB-468 [9])?
The Activity was 6.4%.

And the Activity (MDA-MB-468 [10])?
The Activity was 8.64%.

And the Activity (MDA-MB-468 [11])?
Its Activity is 43.96%.

What about the Activity (MDA-MB-231 [12]) of the same compound?
Its Activity is 2.01%.

What about the Activity (MDA-MB-231 [13]) of the same compound?
Its Activity is 2.3%.

What about the Activity (MDA-MB-231 [14]) of the same compound?
Its Activity is 11.6%.

And the Activity (MDA-MB-231 [15])?
Its Activity is 48.24%.

What about the Activity (MDA-MB-231 [16]) of the same compound?
Its Activity is 71.28%.

What about the Activity (MDA-MB-231 [17]) of the same compound?
Its Activity is “Dose-Dependent Effect”.

And the Activity (MDA-MB-468 [18])?
The Activity was “Active”.

And the Activity (MDA-MB-468 [19])?
The Activity was “Active”.

What about the Activity (MDA-MB-231 [20]) of the same compound?
Its Activity is “Active”.

What about the Activity (MDA-MB-231 [21]) of the same compound?
Its Activity is “Active”.

What about the Activity (MDA-MB-231 [22]) of the same compound?
Its Activity is “Active”.

What about the Activity (MDA-MB-468 [23]) of the same compound?
The Activity was “Dose-Dependent Effect”.

What about the Activity (MDA-MB-231 [24]) of the same compound?
Its Activity is “Dose-Dependent Effect”.

And the inhibition (MDA-MB-231 [25])?
The inhibition was “Active”.

And the inhibition (MDA-MB-231 [26])?
The inhibition was “inactive”.

What about the inhibition (MDA-MB-231 [27]) of the same compound?
Its inhibition is “Active”.

And the inhibition (MDA-MB-231 [28])?
The inhibition was “Active”.

And the inhibition (MDA-MB-231 [29])?
Its inhibition is “Active”.

What about the Activity (4T1 [30]) of the same compound?
The Activity was “Active”.

What about the Activity (4T1 [31]) of the same compound?
The Activity was “Active”.

And the Activity [32]?
The Activity was “Toxic”.
